# Measurements as given in patent US20260176267A1, “PREPARATION OF IMIDAZOPYRIDINE AND IMIDAZOPYRIDAZINE DERIVATIVES AS NOVEL DIACYLGLYCERIDE O-ACYLTRANSFERASE 2 INHIBITORS” (Merck Sharp & Dohme LLC, priority 2022, published 2026).
# Molecular target: T1, human DGAT2 (hDGAT2) (Homo sapiens, UniProt Q96PD7)
# T1 construct: made in house; host or cells: Sf-9 insect cells (baculovirus), membrane fraction
# T1 sequence (Q96PD7 1-388): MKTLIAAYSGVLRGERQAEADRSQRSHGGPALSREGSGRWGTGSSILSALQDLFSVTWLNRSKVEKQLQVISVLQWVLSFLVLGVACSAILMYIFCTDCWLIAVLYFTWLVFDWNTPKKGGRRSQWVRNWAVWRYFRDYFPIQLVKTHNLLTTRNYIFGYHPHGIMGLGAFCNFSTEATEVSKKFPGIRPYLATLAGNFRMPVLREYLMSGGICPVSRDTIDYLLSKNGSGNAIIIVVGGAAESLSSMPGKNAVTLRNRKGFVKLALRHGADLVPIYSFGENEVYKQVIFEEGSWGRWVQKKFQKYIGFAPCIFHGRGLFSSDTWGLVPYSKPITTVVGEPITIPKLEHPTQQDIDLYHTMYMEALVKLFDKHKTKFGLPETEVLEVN
# Test: DGAT2 Enzymatic Activity Assay
# Type: biochemical
# Details: membrane prep of Sf-9 cells expressing hDGAT2; 13C18-triolein product by LC/MS/MS; 25 μM diolein, 5 μM 13C oleoyl-CoA, rt
# Protocol: Sf-9 insect cells were maintained in Grace's insect cell culture medium with 10% heated-inactivated fetal bovine serum, 1% Pluronic F-68 and 0.14 μg/ml Kanamycine sulfate at 27° C. in a shaker incubator. After infection with untagged baculovirus expressing human DGAT2 (hDGAT2) at multiplicity of infection (MOI) 3 for 48 hours, cells were harvested. Cell pellets were suspended in buffer containing 10 mM Tris-HCl pH 7.5, 1 mM EDTA, 250 mM sucrose and Complete Protease Inhibitor Cocktail (Sigma Aldrich), and sonicated on ice. Cell debris were removed by centrifugation at 2000×g for 15 minutes. Membrane fractions were isolated by ultracentrifugation (100,000×g), resuspended in the same buffer, and frozen (−80° C.) for later use. The protein concentration was determined with the Pierce™ BCA Protein Assay Kit (Thermo Fisher Scientific).
# LC/MS/MS analyses were performed using Thermal Fisher's LX4-TSQ Vantage system. This system consists of an Agilent binary high-performance liquid chromatography (HPLC) pump and a TSQ Vantage triple quadrupole MS/MS instrument. For each sample, 2 μL samples from the top organic layer of in-plate liquid-liquid extraction were injected onto a Thermo Betabasic C4 column (2.1 mm×20 mm, 5 μm particle size). The samples were then eluted using the following conditions; mobile phase: Isopropanol:acetonitrile/10 mM ammonium formate=50/35/15 (v/v/v), flow rate: 0.8 mL/min, temperature: 25° C. Data was acquired in positive mode using a heated electrospray ionization (HESI) interface. The operational parameters for the TSQ Vantage MS/MS instrument were a spray voltage of 3000 V, capillary temperature of 280° C., vaporizer temperature 400° C., sheath gas 45 arbitrary unit. Aux gas 10 arbitrary units. […] The peak area was integrated by Xcalibur Quan software. The ratio between the ^13C18 triolein generated in the reaction and spiked in internal standard ^13C21-triolein was used to generate percentage inhibition and IC50 values. Compound percentage inhibition was calculated by the following formula: Inhibition %=1−[(compound response−low control)/(high control−low control)]×100%.
# DGAT2 activity was determined by measuring the amount of enzymatic product ^13C18-triolein (^13C-1,2,3-Tri(cis-9-octadecenoyl)glycerol) using the membrane prep mentioned above. The assay was carried out in ABgene 384-well assay plates in a final volume of 25 μL at rt.
row,Compound,IC50
1,"Cc1c(C(=O)NC2(C)CS(=O)(=O)C2)nc2ccc(Oc3ncccc3OCC(F)F)cn12 [Example 90, 6-[[3-(2,2-difluoroethoxy)-2-pyridyl]oxy]-3-methyl-N-(3-methyl-1,1-dioxo-thietan-3-yl)imidazo[1,2-a]pyridine-2-carboxamide]",5 nM
2,"Cc1c(C(=O)NC2(C)CCS(=O)(=O)CC2)nc2cc(F)c(Oc3nccnc3OCC(F)(F)F)cn12 [Example 122, 7-fluoro-3-methyl-N-(4-methyl-1,1-dioxo-thian-4-yl)-6-[3-(2,2,2-trifluoroethoxy)pyrazin-2-yl]oxy-imidazo[1,2-a]pyridine-2-carboxamide]",7.7 nM
3,"CC1(NC(=O)c2cn3cc(Oc4ncc(Cl)cc4OCC(F)(F)F)c(Cl)cc3n2)CCS(=O)(=O)CC1 [Example 13, 7-chloro-6-[5-chloro-3-(2,2,2-trifluoroethoxy)pyridine-2-yl]oxy-N-(4-methyl-1,1-dioxo-thian-4-yl)imidazo[1,2-a]pyridine-2-carboxamide]",4.3 nM
4,"CC1(NC(=O)c2cn3cc(Oc4ncc(Cl)cc4OCC(F)F)ccc3n2)CS(=O)(=O)C1 [Example 11, 6-[[5-chloro-3-(2,2-difluoroethoxy)-2-pyridyl]oxy]-N-(3-methyl-1,1-dioxo-thietan-3-yl)imidazo[1,2-a]pyridine-2-carboxamide]",23 nM
5,"Cc1c(C(=O)NC2(C)CS(=O)(=O)C2)nc2cc(F)c(Oc3ncc(F)cc3OCC(F)(F)F)cn12 [Example 121, 7-fluoro-6-[[5-fluoro-3-(2,2,2-trifluoroethoxy)-2-pyridyl]oxy]-3-methyl-N-(3-methyl-1,1-dioxo-thietan-3-yl)imidazo[1,2-a]pyridine-2-carboxamide]",41 nM
6,"CCc1c(C(=O)NC2(C)CCS(=O)(=O)CC2)nc2ccc(Oc3ncccc3OCC(F)(F)F)cn12 [Example 115, 3-ethyl-N-(4-methyl-1,1-dioxo-thian-4-yl)-6-[[3-(2,2,2-trifluoroethoxy)-2-pyridyl]oxy]imidazo[1,2-a]pyridine-2-carboxamide]",44 nM
7,"Cc1c(C(=O)NC2(C)CCS(=O)(=O)CC2)nc2ccc(OCc3ccccc3OC(F)F)cn12 [Example 127, 6-[[2-(difluoromethoxy)phenyl]methoxy]-3-methyl-N-(4-methyl-1,1-dioxo-thian-4-yl)imidazo[1,2-a]pyridine-2-carboxamide]",6.5 nM
8,Cc1c(C(=O)NC2(C)CCS(=O)(=O)C(C)(C)C2)nc2ccc(Oc3ncc(F)cc3OCC(F)F)cn12 (centres unmarked) [Example 64],1.7 nM
9,"CC1(NC(=O)c2cn3cc(Oc4ncccc4OCC(F)(F)F)cc(C(F)(F)F)c3n2)CCS(=O)(=O)CC1 [Example 56, N-(4-methyl-1,1-dioxo-thian-4-yl)-6-[[3-(2,2,2-trifluoroethoxy)-2-pyridyl]oxy]-8-(trifluoromethyl)imidazo[1,2-a]pyridine-2-carboxamide]",> 9990 nM
10,"Cc1c(C(=O)NC2(C)CCS(=O)(=O)CC2)nc2ccc(Oc3ncc(F)cc3OCC(F)F)cn12 [Example 73, 6-[[3-(2,2-difluoroethoxy)-5-fluoro-2-pyridyl]oxy]-3-methyl-N-(4-methyl-1,1-dioxo-thian-4-yl)imidazo[1,2-a]pyridine-2-carboxamide]",2.6 nM
11,"Cc1c(C(=O)NC2(C)CCS(=O)(=O)CC2)nc2ccc(Oc3nccnc3OCC(F)(F)F)cn12 [Example 82, 3-methyl-N-(4-methyl-1,1-dioxo-thian-4-yl)-6-[3-(2,2,2-trifluoroethoxy)pyrazin-2-yl]oxy-imidazo[1,2-a]pyridine-2-carboxamide]",9.1 nM
12,"CCOc1ccccc1Oc1ccc2nc(C(=O)N[C@H]3CCOC3)cn2c1 [Example 184, (S)-6-(2-ethoxyphenoxy)-N-(tetrahydrofuran-3-yl)imidazo[1,2-a]pyridine-2-carboxamide]",6340 nM
13,"Cc1cc(Oc2ncc(F)cc2OCC(F)F)nn2cc(C(=O)N[C@H]3CCCC(F)(F)[C@@H]3O)nc12 [Example 174, N-((1S,2R)-3,3-difluoro-2-hydroxycyclohexyl)-6-((3-(2,2-difluoroethoxy)-5-fluoropyridin-2-yl)oxy)-8-methylimidazo[1,2-b]pyridazine-2-carboxamide]",14 nM
14,"Cc1c(C(=O)NC2(C)CS(=O)(=O)C2)nc2cc(F)c(Oc3ncc(Cl)cc3OCC(F)(F)F)cn12 [Example 120, 6-[[5-chloro-3-(2,2,2-trifluoroethoxy)-2-pyridyl]oxy]-7-fluoro-3-methyl-N-(3-methyl-1,1-dioxo-thietan-3-yl)imidazo[1,2-a]pyridine-2-carboxamide]",4.3 nM
15,"Cc1c(C(=O)NC2(C)CCS(=O)(=O)CC2)nc2ccc(OCc3ncccc3OCC(F)(F)F)cn12 [Example 123, 3-methyl-N-(4-methyl-1,1-dioxo-thian-4-yl)-6-[[3-(2,2,2-trifluoroethoxy)-2-pyridyl]methoxy]imidazo[1,2-a]pyridine-2-carboxamide]",93 nM
16,"CCOc1cccnc1Oc1ccc2nc(C(=O)Nc3cccnc3)cn2c1 [Example 54, 6-[(3-ethoxy-2-pyridyl)oxy]-N-(3-pyridyl)imidazo[1,2-a]pyridine-2-carboxamide]",850 nM
17,"CCOc1cc(C(F)(F)F)cnc1Oc1ccc2nc(C(=O)NC3(C)CCS(=O)(=O)CC3)c(C)n2c1 [Example 95, 6-[[3-ethoxy-5-(trifluoromethyl)-2-pyridyl]oxy]-3-methyl-N-(4-methyl-1,1-dioxo-thian-4-yl)imidazo[1,2-a]pyridine-2-carboxamide]",3 nM
18,"Cc1cnc(Oc2ccc3nc(C(=O)NC4(C)CCS(=O)(=O)CC4)c(C)n3c2)c(OCC(F)(F)F)n1 [Example 78, 3-methyl-N-(4-methyl-1,1-dioxo-thian-4-yl)-6-[5-methyl-3-(2,2,2-trifluoroethoxy)pyrazin-2-yl]oxy-imidazo[1,2-a]pyridine-2-carboxamide]",3 nM
19,"Cc1c(C(=O)NC2(C)CCS(=O)(=O)CC2)nc2c(F)cc(Oc3ncccc3OCC(F)(F)F)cn12 [Example 117, 8-fluoro-3-methyl-N-(4-methyl-1,1-dioxo-thian-4-yl)-6-[[3-(2,2,2-trifluoroethoxy)-2-pyridyl]oxy]imidazo[1,2-a]pyridine-2-carboxamide]",1.2 nM
20,"CC1(NC(=O)c2nc3ccc(Oc4ncc(F)cc4OCC(F)(F)F)c(Cl)n3c2Cl)CS(=O)(=O)C1 [Example 140, 3,5-dichloro-6-[[5-fluoro-3-(2,2,2-trifluoroethoxy)-2-pyridyl]oxy]-N-(3-methyl-1,1-dioxo-thietan-3-yl)imidazo[1,2-a]pyridine-2-carboxamide]",2.1 nM
21,"CC1(NC(=O)c2cn3nc(Oc4nccnc4OCC(F)(F)F)ccc3n2)CCS(=O)(=O)CC1 [Example 165, N-(4-Methyl-1,1-dioxo-thian-4-yl)-6-[3-(2,2,2-trifluoroethoxy)pyrazin-2-yl]oxy-imidazo[1,2-b]pyridazine-2-carboxamide]",901 nM
22,"CC1(NC(=O)c2cn3cc(Oc4ncc(Cl)cc4OCC(F)(F)F)cnc3n2)CCS(=O)(=O)CC1 [Example 186, 6-((5-Chloro-3-(2,2,2-trifluoroethoxy)pyridin-2-yl)oxy)-N-(4-methyl-1,1-dioxidotetrahydro-2H-thiopyran-4-yl)imidazo[1,2-a]pyrimidine-2-carboxamide]",33 nM
23,"Cc1cc2nc(C(=O)NC3(C)CCS(=O)(=O)CC3)cn2c(C)c1Oc1ncc(F)cc1OCC(C)(F)F [Example 40, 6-[[3-(2,2-difluoropropoxy)-5-fluoro-2-pyridyl]oxy]-5,7-dimethyl-N-(4-methyl-1,1-dioxo-thian-4-yl)imidazo[1,2-a]pyridine-2-carboxamide]",52 nM
